Assay results from US9637469B2, “Pyridine derivative” (Teijin Pharma Limited, priority 2012, dated 2017).

Legend:
human URAT1 = target: T1, human URAT1 (Homo sapiens, UniProt Q96S37); assay: Test for inhibition of uric acid transport using human URAT1-expressing cells;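 further: three stars up to 0.2 µM two stars 0.2-2 µM one star 2-20 µM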; type: cell-based; details: HEK 293 cells expressing human URAT1; 14C-labeled uric acid 25 μM; uptake 37° C. for 5 min
T1 construct: Full-length cDNA of human URAT1 (hURAT1)
T1 sequence (Q96S37 1-553): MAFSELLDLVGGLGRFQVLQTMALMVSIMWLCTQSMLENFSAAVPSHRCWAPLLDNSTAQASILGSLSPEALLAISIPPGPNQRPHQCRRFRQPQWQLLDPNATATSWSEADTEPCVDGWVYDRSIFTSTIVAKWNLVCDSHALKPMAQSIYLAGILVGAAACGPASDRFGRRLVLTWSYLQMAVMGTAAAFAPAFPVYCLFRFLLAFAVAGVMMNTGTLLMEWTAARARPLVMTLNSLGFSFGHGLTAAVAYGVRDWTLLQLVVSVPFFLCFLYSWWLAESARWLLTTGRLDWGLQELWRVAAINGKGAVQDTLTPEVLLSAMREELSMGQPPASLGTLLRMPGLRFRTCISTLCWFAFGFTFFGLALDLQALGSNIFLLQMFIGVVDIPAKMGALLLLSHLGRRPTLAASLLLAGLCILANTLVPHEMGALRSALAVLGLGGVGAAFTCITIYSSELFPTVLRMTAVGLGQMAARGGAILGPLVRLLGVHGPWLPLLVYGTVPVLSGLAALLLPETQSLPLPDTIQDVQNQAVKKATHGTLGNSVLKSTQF
How it was run: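 HEK293 cells stably transfected with full-length hURAT1, preincubated 10 min at 37 °C in HBSS with NaCl replaced by Na gluconate. Uptake of 25 μM ¹⁴C-uric acid with compound ran 5 min at 37 °C, then scintillation counting. IC50 derived from % of DMSO-control URAT1-specific uptake.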

Cebus apella = assay: Test for drug efficacy in Cebus apella (uric acid excretion rate); type: in vivo; details: 3 mg/kg to 30 mg/kg in 0.5% methylcellulose into stomach via the nasal cavity, up to 24 hours
Protocol: A test compound (3 mg/kg to 30 mg/kg) prepared by suspending in a 0.5% methylcellulose solution was administered to Cebus apella into stomach via the nasal cavity using a disposable catheter and a syringe barrel. Blood samples were taken before administration and 30 minutes, 1 hour, 2 hours, 4 hours, 8 hours, 12 hours, and 24 hours after administration; and urine samples were collected for the time intervals of immediately to 4 hours after administration, from 4 hours to 8 hours after administration, from 8 hours to 16 hours after administration, and from 16 hours to 24 hours after administration. Concentrations of uric acid and creatinine in the blood and urine samples collected were measured by an automatic analyzer (JEOL Ltd.). Uric acid and creatine were measured using L-type Wako UA.F (Wako Pure Chemicals Industries, Ltd.) and L-type Creatine F (Wako Pure Chemicals Industries, Ltd.) respectively. Uric acid clearance was calculated from the uric acid concentrations in blood and urine and, similarly, creatinine clearance was calculated from the creatinine concentrations.

| SMILES | Inhibitory Activity (IC50 of uric acid transport inhibition) (human URAT1) | uricosuric effect (uric acid excretion rate) (Cebus apella) |
| --- | --- | --- |
| Cc1ccc(C)c(Cn2c(-c3cccnc3)nc(C)c2C(=O)O)c1 [Compound A1, 1-(2,5-dimehylbenzyl)-4-methyl-2-(pyridin-3-yl)-1H-imidazole-5-carboxylic acid] | * * | excellent uricosuric effect was confirmed |
| Cc1nc(-c2cccnc2)n(Cc2cccc3ccccc23)c1C(=O)O [Compound A2, 4-methyl-1-(naphthalen-1-ylmethyl)-2-(pyridin-3-yl)-1H-imidazole-5-carboxylic acid] | * * | excellent uricosuric effect was confirmed |
| Cc1nc(-c2cccnc2)n(Cc2csc3cccc(Cl)c23)c1C(=O)O [Compound A7, 1-((4-chlorobenzo[b]thiophen-3-yl)methyl)-4-methyl-2-(pyridin-3-yl)-1H-imidazole-5-carboxylic acid] | * * | excellent uricosuric effect was confirmed |
| Cc1nc(-c2cccnc2)n(Cc2cc(Cl)ccc2Cl)c1C(=O)O [Compound A13, 1-(2,5-dichlorobenzyl)-2-(pyridin-3-yl)-4-methyl-1H-imidazole-5-carboxylic acid] | * * * | excellent uricosuric effect was confirmed |
| CCc1nc(-c2cccnc2)n(Cc2cc(Cl)ccc2Cl)c1C(=O)O [Compound A14, 1-(2,5-dichlorobenzyl)-4-ethyl-2-(pyridin-3-yl)-1H-imidazole-5-carboxylic acid] | * * * | excellent uricosuric effect was confirmed |
| O=C(O)c1c(C2CC2)nc(-c2cccnc2)n1Cc1cc(Cl)ccc1Cl [Compound A15, 4-cyclopropyl-1-(2,5-dichlorobenzyl)-2-(pyridin-3-yl)-1H-imidazole-5-carboxylic acid] | * * * | excellent uricosuric effect was confirmed |
| O=C(O)c1c(C(F)(F)F)nc(-c2cccnc2)n1Cc1cc(Cl)ccc1Cl [Compound A19, 1-(2,5-dichlorobenzyl)-2-(pyridin-3-yl)-4-(trifluoromethyl)-1H-imidazole-5-carboxylic acid] | * * * | excellent uricosuric effect was confirmed |
| O=C(NS(=O)(=O)C1CC1)c1ccc(-c2cncc(Cl)c2)n1Cc1cc(Cl)ccc1Cl [Compound B30, 2-(5-chloropyridin-3-yl)-N-(cyclopropylsulfonyl)-1-(2,5-dichlorobenzyl)-1H-pyrrole-5-carboxamide] | * * * | – |
| O=C(NS(=O)(=O)C1CC1)c1ccc(-c2cccnc2)n1Cc1cc(Cl)ccc1Cl [Compound B31, N-(cyclopropylsulfonyl)-1-(2,5-dichlorobenzyl)-2-(pyridin-3-yl)-1H-pyrrole-5-carboxamide] | * * * | – |
| Cc1cncc(-c2ccc(C(=O)NS(=O)(=O)C3CC3)n2Cc2cc(Cl)ccc2Cl)c1 [Compound B32, N-(cyclopropylsulfonyl)-1-(2,5-dichlorobenzyl)-2-(5-methylpyridin-3-yl)-1H-pyrrole-5-carboxamide] | * * * | – |
| O=C(O)/C=C/c1ccc(-c2cccnc2)n1Cc1cccc2ccccc12 [Compound B33, (E)-3-(1-(naphthalen-1-ylmethyl)-2-(pyridin-3-yl)-1H-pyrrole-5-yl)acrylic acid] | * * * | – |
| Cc1cncc(-c2ccc(/C=C/C(=O)O)n2Cc2cc(Cl)ccc2Cl)c1 [Compound B34, (E)-3-(1-(2,5-dichlorobenzyl)-2-(5-methylpyridin-3-yl)-1H-pyrrol-5-yl)acrylic acid] | * * * | – |
| O=C(O)/C=C/c1ccc(-c2cncc(F)c2)n1Cc1cc(Cl)ccc1Cl [Compound B35, (E)-3-(1-(2,5-dichlorobenzyl)-2-(5-fluoropyridin-3-yl)-1H-pyrrol-5-yl)acrylic acid] | * * * | – |
